Measurements as given in publication PMC6744390 (Drug Metabolism and Disposition, 2019).

What was measured:
plasma proteins = experiment: Plasma protein binding by high-throughput equilibrium dialysis; format: in vitro ADME, dog; conditions: Mann–Whitney U test, n = 6 per group
[1] = as above; format: in vitro ADME, dog; conditions: both, dog, plasma

Row | difference in plasma protein binding between H1 and H2 allele plasma (plasma proteins) | fraction unbound at 4 h, 4 µM [1] | Structure (SMILES)
1 | No significant difference |  | COc1c(C)c2c(c(O)c1C/C=C(\C)CCC(=O)O)C(=O)OC2 [mycophenolic acid]
2 | No significant difference | < 0.02 | Cc1ccc(-c2cc(C(F)(F)F)nn2-c2ccc(S(N)(=O)=O)cc2)cc1 [celecoxib]
